Tests used:
[1] = system: sea lice Lepeophtheirus salmonis; assay: Activity in vivo against copepodids (Lepeophtheirus salmonis) on Atlantic salmon, medicated feed; conditions: Atlantic salmon (Salmo salar L.), medicated feed 1 mg/kg/day for 7 consecutive days; counted 10 days after treatment end
Experimental: The study used two groups of 45 Atlantic salmon (Salmo salar L.), each, with an average weight of 400 g per fish. Fish were challenged with sea lice copepodids Lepeophtheirus salmonis) (Cohort I). When cohort I reached pre-adult stage, all fish were challenged with a second cohort of sea lice copepodids (Cohort II).
Treatment was initiated when sea lice in cohort I became pre-adult/adults and sea lice in cohort II were early chalimus stages:
One group was treated with medicated feed-pellet containing the (S)-enantiomer of the compound of formula (I) at 1 mg/kg/day, during 7 consecutive days. One group was a placebo control group. The medicated pellets were prepared by dry coating commercially available fish feed pellets with a pre-mix containing the (S)-enantiomer of the compound of formula (I) to reach a content of 0.02% (w/w) active ingredient in the fish feed.
Sea lice were counted 10 days after treatment end.

[2] = system: adult R. sanguineus ticks; assay: Activity in vivo against Rhipicephalus sanguineus ticks (dog tick) on rabbits; conditions: spray application on ears; for threshold concentration where the efficacy drops below 90%: rabbits
Experimental: On day 0, rabbits are treated with the test compound at a given dose by spray application on their ears only. On day +1, the animals are infested on their ears with adult R. sanguineus ticks (sex ratio 1:1). Evaluation of efficacy is performed 24 h, 48 h, and 72 h after infestation by counting the numbers of dead and live ticks recovered from the animals. Efficacy is expressed as comparison with a placebo treated group using the Abbot's formula. Infestations can be repeated at weekly intervals until efficacy drops. The racemic compound of formula (I) according to the present invention and the racemic compound No. 1.48 according to WO2010/070068, page 47 were tested at different concentrations in order to determine the threshold concentration where the efficacy drops below 90%.

[3] = system: Lepeophtheirus salmonis copepodids; assay: Activity in vitro against Lepeophtheirus salmonis at copepodid stage; assay type: cell-based; conditions: 0.16 ng/ml sea water; 1 hour contact, then 48 h in untreated sea water
Experimental: Sea lice copepodids were used to seed a 96-well plate containing the test substances to be evaluated for antiparasitic activity. The racemic compound of formula (I) according to the present invention and the racemic compound No. 1.48 according to WO2010/070068, page 47 were tested by serial dilution in order to determine its minimal effective dose (MED). Copepodids were left in contact with each test compound diluted in sea water for 1 hour. They were then incubated in untreated sea water for 48 h. Efficacy against sea lice was then confirmed if no copepodid moved over a period of 80 seconds.

[4] = system: Rhipicephalus sanguineus nymphs; assay: Activity in vivo against Rhipicephalus sanguineus nymphs on Mongolian gerbils (spray application); conditions: 1.0 mg/kg animal biomass, Mongolian gerbils (Meriones unguiculatus)
Experimental: On day 0, gerbils are treated with the respective test compound at a given dose by spray application. On day +1 (+2), the animals are infested with nymphs of R. sanguineus. Ticks are left on the animals until full repletion. Seven days after infestation nymphs dropped off fully engorged are collected and counted. Efficacy in killing is expressed as a tick number reduction in comparison with a placebo treated group, using the Abbot's formula.

| SMILES | efficacy (sea lice count) [1] | efficacy (vs placebo, Abbot's formula) ([2]; 3 mg/m^2, rabbits) | efficacy (vs placebo, Abbot's formula) ([2]; 7.5 mg/m^2, rabbits) | threshold concentration where the efficacy drops below 90% [2] | efficacy (no copepodid moved over 80 seconds) [3] | efficacy (tick number reduction vs placebo, Abbot's formula) [4] | efficacy (vs placebo, Abbot's formula) ([2]; 15 mg/m^2, rabbits) |
| --- | --- | --- | --- | --- | --- | --- | --- |
| C#CCNC(=O)CNC(=O)c1sc(C2=NO[C@@](c3cc(Cl)c(Cl)c(Cl)c3)(C(F)(F)F)C2)cc1C [(S)-enantiomer of the compound of formula (I)] | 100% |  |  |  |  |  |  |
| C#CCNC(=O)CNC(=O)c1sc(C2=NOC(c3cc(Cl)c(Cl)c(Cl)c3)(C(F)(F)F)C2)cc1C (racemic) [racemic compound of formula (I)] |  | 73% | 93% | 3 mg/m^2 | 100% | 87% |  |
| C#CCNC(=O)CNC(=O)c1sc(C2=NOC(c3cc(Cl)cc(Cl)c3)(C(F)(F)F)C2)cc1C (racemic) [racemic compound No. 1.48, reference compound] |  |  |  | 15 mg/m^2 | 0% | 77% | 82% |
